Columns and labels:
[1] = RP-HPLC determination of capacity factors and log Po/w (Supelcosil LC-ABZ, MOPS buffer pH 7.4/methanol); settings: for Capacity factors log k’40: 40% methanol; for Capacity factors log k’40 / Capacity factors log k’50 / Capacity factors log k’60 / Capacity factors log k’70: MOPS buffer pH 7.4; for Capacity factors log k’50: 50% methanol; for Capacity factors log k’60: 60% methanol; for Capacity factors log k’70: 70% methanol; for Capacity factors log k’0: extrapolated to 0% methanol; for chromatographic logP: pH 7.4, RP-HPLC log Po/w; for log k’0: capacity factor extrapolated to 0% methanol; for RP-HPLC log Po/w: from log k’0 by Equation (1)
Description: The RP-HPLC methods of Minick and Lombardo [53] were considered for estimating the n-octanol/water partition coefficients (log Po/w) of QdO. The inorganic salts and the reference compounds were, at least, of analytical grade (Sigma Aldrich and Fluka) and used without further purification. HPLC-grade methanol, n-octanol (Sigma-Aldrich) and bi-distilled water were used to prepare the mobile phase.
The other chromatographic conditions were: flow 1.0 mL/min^−1; isocratic elution, UV-visible detector set at the wavelength with maximum absorbance (260 and 210 nm). The test solutions were 0.3 mM in the desired compound. All the experiments were performed at 25 ± 2 °C at least twice.
The capacity factors were calculated according to Equation (2): […]
In order to judge if the experimentally measured log k’0 can be used to predict the log Po/w value, a calibration curve was created with the capacity factors of the reference compounds and a linear regression equation between the log Po/w and log k’0 was determined.
The robustness of the model and its predictivity were evaluated by the leave-one-out (LOO) cross-validation procedure. According to this procedure, the log Po/w value of each compound in the reference data set is predicted by the equations derived from all the other compounds except the predicted one. At the end of this procedure two values are available for each reference compound, the reference shake-flask log Po/w value (yi) and the predicted one (ŷi). […] The regression coefficient (R^2LOO) is defined by Equation (5): [drawing 8] (5) where [drawing 9] is the mean of the reference shake-flask log Po/w value and n is the number of reference compounds. A high value of R^2LOO indicates a good predictive ability of the model. The root mean squared error in prediction (RMSELOO) is calculated with Equation (6): [drawing 10] (6)

[2] = set-up: method as in earlier work; settings: reduction peak potential; cited from earlier work
[3] = reference compounds; reference values; ref OECD Guidelines [39]; cited from earlier work
[4] = reference compounds, leave-one-out cross-validation

Row | Capacity factors log k’40 [1] | Capacity factors log k’50 [1] | Capacity factors log k’60 [1] | Capacity factors log k’70 [1] | Capacity factors log k’0 ([1]; pH 7.4) | chromatographic logP [1] | LOO-predicted RP-HPLC log Po/w ([1]; pH 7.4) | Structure (SMILES) | log k’0 ([1]; reference compounds, pH 7.4) | RP-HPLC log Po/w ([1]; reference compounds) | Epc,1 [2] | LOO-predicted RP-HPLC log Po/w [1, 4] | log Po/w [3]
1 | 0.28 | −0.05 | −0.34 | −0.64 | 1.49 | 1.76 | – | Cc1c(C(=O)NCc2ccccc2)[n+]([O-])c2ccccc2[n+]1[O-] [Compound 10] | – | – | – | – | –
2 | – | – | – | – | – | – | 1.19 | CC(=O)Nc1ccccc1 [Compound 3, Acetanilide, reference compound] | 0.88 | 1.15 | – | – | –
3 | 0.69 | 0.36 | 0.00 | −0.37 | 2.11 | 2.38 | – | Cc1c(C(=O)NCCc2ccccc2)[n+]([O-])c2cc(Cl)ccc2[n+]1[O-] [Compound 16] | – | – | −1.525 | – | –
4 | 0.98 | 0.66 | 0.27 | −0.11 | 2.46 | 2.72 | – | Cc1c(C(=O)NCc2ccccc2)[n+]([O-])c2cc(Cl)c(Cl)cc2[n+]1[O-] [Compound 13] | – | – | −1.211 | – | –
5 | 1.22 | 0.84 | 0.42 | 0.02 | 2.83 | 3.09 | – | Cc1c(C(=O)NCc2ccc(Br)cc2)[n+]([O-])c2cc(Cl)ccc2[n+]1[O-] [Compound 20] | – | – | −1.445 | – | –
6 | – | – | – | – | – | – | 1.52 | CC(=O)c1ccccc1 [Compound 4, Acetophenone, reference compound] | 1.27 | 1.54 | – | – | –
7 | – | – | – | – | – | – | – | c1ccccc1 [Compound 5, Benzene, reference compound] | 1.87 | 2.14 | – | – | –
8 | 1.07 | 0.74 | 0.34 | −0.06 | 2.60 | 2.87 | – | Cc1c(C(=O)NCCc2ccccc2)[n+]([O-])c2cc(Cl)c(Cl)cc2[n+]1[O-] [Compound 17] | – | – | −1.387 | – | –
9 | 0.62 | 0.25 | −0.10 | −0.44 | 2.02 | 2.29 | – | Cc1ccc(CNC(=O)c2c(C)[n+]([O-])c3ccccc3[n+]2[O-])cc1 [Compound 22] | – | – | −1.580 | – | –
10 | – | – | – | – | – | – | – | c1ccc2ccccc2c1 [Compound 8, Naphthalene, reference compound] | 3.15 | 3.42 | – | – | –
11 | 1.33 | 0.93 | 0.54 | 0.14 | 2.91 | 3.18 | – | Cc1ccc(CNC(=O)c2c(C)[n+]([O-])c3cc(Cl)c(Cl)cc3[n+]2[O-])cc1 [Compound 25] | – | – | – | – | –
12 | 0.85 | 0.48 | 0.11 | −0.24 | 2.30 | 2.57 | – | Cc1c(C(=O)NCc2ccc(Br)cc2)[n+]([O-])c2ccccc2[n+]1[O-] [Compound 18] | – | – | −1.540 | – | –
13 | 0.93 | 0.54 | 0.15 | −0.25 | 2.51 | 2.77 | – | Cc1ccc(CNC(=O)c2c(C)[n+]([O-])c3ccc(Cl)cc3[n+]2[O-])cc1 [Compound 24] | – | – | −1.489 | – | –
14 | 0.36 | 0.05 | −0.26 | −0.58 | 1.61 | 1.88 | – | Cc1c(C(=O)NCCc2ccccc2)[n+]([O-])c2ccccc2[n+]1[O-] [Compound 14] | – | – | −1.625 | – | –
15 | 1.21 | 0.80 | 0.33 | −0.12 | 3.02 | 3.28 | – | Cc1ccc2c(c1)[n+]([O-])c(C(=O)NCC(c1ccccc1)c1ccccc1)c(C)[n+]2[O-] [Compound 27] | – | – | −1.640 | – | –
16 | 0.66 | 0.34 | −0.01 | −0.36 | 2.02 | 2.29 | – | Cc1ccc(CNC(=O)c2c(C)[n+]([O-])c3ccc(C)cc3[n+]2[O-])cc1 [Compound 23] | – | – | −1.590 | – | –
17 | – | – | – | – | – | – | – | Nc1ccccc1 [Compound 2, Aniline, reference compound] | 0.67 | 0.94 | – | 0.96 | –
18 | 0.47 | 0.21 | −0.13 | −0.45 | 1.73 | 2 | – | Cc1ccc2c(c1)[n+]([O-])c(C(=O)NCCc1ccccc1)c(C)[n+]2[O-] [Compound 15] | – | – | −1.649 | – | –
19 | 1.78 | 1.31 | 0.76 | 0.25 | 3.86 | 4.12 | – | Cc1c(C(=O)NCC(c2ccccc2)c2ccccc2)[n+]([O-])c2cc(Cl)c(Cl)cc2[n+]1[O-] [Compound 29] | – | – | −1.410 | – | –
20 | – | – | – | – | – | – | – | Clc1ccccc1 [Compound 6, Chlorobenzene, reference compound] | 2.62 | 2.89 | – | 2.90 | –
21 | 1.38 | 0.91 | 0.38 | −0.13 | 3.42 | 3.69 | – | Cc1c(C(=O)NCC(c2ccccc2)c2ccccc2)[n+]([O-])c2cc(Cl)ccc2[n+]1[O-] [Compound 28] | – | – | −1.491 | – | –
22 | 0.35 | 0.07 | −0.24 | −0.56 | 1.58 | 1.85 | – | Cc1ccc2c(c1)[n+]([O-])c(C(=O)NCc1ccccc1)c(C)[n+]2[O-] [Compound 11] | – | – | −1.658 | – | –
23 | 0.65 | 0.30 | −0.05 | −0.36 | 1.98 | 2.25 | – | Cc1c(C(=O)NCc2ccccc2)[n+]([O-])c2cc(Cl)ccc2[n+]1[O-] [Compound 12] | – | – | −1.482 | – | –
24 | – | – | – | – | – | – | – | CCC(C)=O [Compound 1, 2-Butanone, reference compound] | −0.06 | 0.21 | – | 0.15 | 0.3
25 | 0.94 | 0.60 | 0.21 | −0.16 | 2.43 | 2.69 | – | Cc1ccc2c(c1)[n+]([O-])c(C(=O)NCc1ccc(Br)cc1)c(C)[n+]2[O-] [Compound 19] | – | – | −1.580 | – | –
26 | 1.06 | 0.62 | 0.14 | −0.33 | 2.92 | 3.18 | – | Cc1c(C(=O)NCC(c2ccccc2)c2ccccc2)[n+]([O-])c2ccccc2[n+]1[O-] [Compound 26] | – | – | −1.591 | – | –
27 | 1.60 | 1.15 | 0.65 | 0.19 | 3.51 | 3.78 | – | Cc1c(C(=O)NCc2ccc(Br)cc2)[n+]([O-])c2cc(Cl)c(Cl)cc2[n+]1[O-] [Compound 21] | – | – | −1.363 | – | –
28 | – | – | – | – | – | – | – | Brc1ccccc1 [Compound 7, Bromobenzene, reference compound] | 2.84 | – | – | – | –

— paper PMC6264295, “Studies on Log Po/w of Quinoxaline di-N-Oxides: A Comparison of RP-HPLC Experimental and Predictive Approaches” (Molecules, 2011)
